# Entries after “also recorded” stand apart in the source; their conditions may differ. Like-named read-outs stand apart in the source and are kept apart here.
# How the values were obtained:
# [1] = test system: Jurkat E6.1 human T acute lymphoblastic leukemia cell line; assay: WST-1 cytotoxicity assay on Jurkat E6.1 cells; conditions: for Selectivity Index (SI): IC50 non-cancerous cell line (WIL2-NS) / IC50 leukemia cell line (Jurkat E6.1); for IC50: read-out: Value of IC50 Jurkat E6.1; for kind of effect on the cells (cytostatic or cytotoxic): Jurkat E6.1, WST-1, up to 5.0 μM, 24 h
# Protocol: (§1) The Jurkat E6.1 (TIB-152™) and WIL2-NS (CRL-8155™) cell lines were purchased from the American Type Culture Collection. These cells were cultured in Roswell Park Memorial Institute Medium 1640, RPMI-1640 supplemented with 10% Fetal Bovine Serum (FBS) and 1% penicillin-streptomycin to obtain the complete growth medium. The cells were incubated at 37 °C with 5% CO2 (New Brunswick Galaxy 170 S, Hamburg, Germany).
# (§2) Jurkat E6.1 and WIL2-NS cell lines were cultured in 75 cm^2 flasks and seeded in 96-well culture plates with a final concentration of 1 × 10^6 cells/mL. The cells were exposed to organotin(IV) dithiocarbamate compounds with the highest concentration of 5.0 μM. Vincristine was used in this study as a positive control with its highest concentration, at 5.0 μM, while untreated cells (cells and complete medium only) were used as the negative control. Serial dilution methods are used to obtain the desired concentration gradient and the cells were then exposed to the compounds overnight (24 h). After the incubation period, the WST-1 solution (Roche, Basel, Switzerland) was added in a ratio of 1:10 to the suspension volume in the wells and incubated for another 4 h. Finally, the cells’ optical density (OD) was measured using an ELISA microplate reader (Multiskan FC, Thermo Scientific, Waltham, MA, USA) at 440 nm wavelength. The data obtained were analyzed using GraphPad Prism software (Dotmatics) to determine the IC50 values.
# (§3) The selectivity index is determined by dividing the cytotoxic activity (IC50 value) of each compound on a non-cancerous cell line (WIL2-NS) to a leukemia cell line (Jurkat E6.1) using the following equation:SI = IC50 for non cancerous cell line IC50 for cancerous cell line
# [2] = test system: WIL2-NS non-cancerous cells; assay: WST-1 cytotoxicity assay on WIL2-NS cells; assay type: cell-based; conditions: read-out: Value of IC50 WIL2-NS
# Protocol: as §1, §2
# Jurkat E6.1 cells [3] = assay: Annexin V-FITC/PI apoptosis assay (mode of cell death) by flow cytometry; assay type: cell-based, human; conditions: Jurkat E6.1, treated at IC50 concentration, 24 h; for cell population in early apoptotic phase / cell population in late apoptotic phase: mean ± SEM; for total apoptosis population: early + late apoptosis
# Protocol: Apoptosis assay was performed according to the manufacturer’s instructions using Annexin V-FITC/PI staining kit (BD Biosciences, East Rutherford, NJ, USA). The Jurkat E6.1 cells were seeded in a 6-well plate with a final concentration of 5.0 × 10^5 cell/mL. […] After the incubation period, 500 μL of cells were harvested and transferred into a microcentrifuge tube. The sample was centrifuged at 1500 rpm for 5 min at 4 °C (Mikro 200R, Hettich, Kirchlengern, Germany) and the supernatant was discarded, and 500 μL of cold PBS was added to the sample followed by another centrifugation for 5 min, then the supernatant was discarded. Next, 150 μL of Annexin V binding buffer and 5.0 μL of Annexin V-FITC were added to the sample in the dark and then incubated for 15 min at room temperature. After that, 3.0 μL of propidium iodide (PI) was added to the samples. The samples then incubated for another 2 min at room temperature. Finally, 350 μL of Annexin V binding buffer was added to the samples and transferred into Falcon tubes. The samples were then analyzed using a BD FACS Canto II flow cytometer (BD Bioscience, East Rutherford, NJ, USA).
# Jurkat E6.1 cells [4] = assay: Cell cycle analysis with RNase/PI stain by flow cytometry; assay type: cell-based, human; conditions: Jurkat E6.1, treated at IC50 concentration, 24 h; for cells in G0/G1 phase / cells in G2/M phase / cells in S phase: mean ± SEM
# Protocol: Cell cycle analysis was performed according to the manufacturer’s instructions using PI/RNase Staining Buffer (BD Bioscience, East Rutherford, NJ, USA). For this assay, the Jurkat E6.1 cell line was cultured in 6-well culture plates with a final concentration of 1.0 × 10^6 cells/mL and treated with organotin(IV) dithiocarbamate compounds for 24 h, with vincristine as the positive control. The concentration of each treatment used was based on the IC50 values obtained from the WST-1 assay. After the incubation period, 500 µL of cell suspension was washed twice with cold PBS and fixed overnight with 500 µL of 70% ethanol. The cells were then stained with 500 µL RNase/PI stain and measured using a BD FACS Canto II flow cytometer (BD Bioscience, East Rutherford, NJ, USA). The cell cycle phases were analyzed using the ModFit LT software (Verity Software House).
# Jurkat E6.1 cells [5] = test system: Jurkat E6.1 cells; set-up: method as in earlier work; conditions: ref 31 (Kamaludin et al.); cited from earlier work
# in vitro = conditions: human
# Protocol: as §1, §2, §3
# [6] = WST-1, 24 h exposure, highest concentration 5.0 μM, mean ± SEM, n = 3
SMILES,Selectivity Index (SI) [1],"IC50 [1, 6] [nM]","IC50 [2, 6] [nM]",cell population in early apoptotic phase (Jurkat E6.1 cells [3]) [%],cell population in late apoptotic phase (Jurkat E6.1 cells [3]) [%],total apoptosis population (Jurkat E6.1 cells [3]) [%],cells in G0/G1 phase (Jurkat E6.1 cells [4]),cells in G2/M phase (Jurkat E6.1 cells [4]),cells in S phase (Jurkat E6.1 cells [4]),IC50 (Jurkat E6.1 cells [5]) [nM],"viability at 24 h, 0.3 µM (in vitro) [%]","IC50 ([1]; Homo sapiens, Jurkat E6.1, 24 h) [nM]",kind of effect on the cells (cytostatic or cytotoxic) [1],"IC50 ([2]; Homo sapiens, WIL2-NS, 24 h) [nM]","Value of IC50 Jurkat E6.1 [1, 6]",Phases of Cell Cycle Arrest (Jurkat E6.1 cells [4])
"CCN(CC)C(=S)[S][Sn]([c]1ccccc1)([c]1ccccc1)[c]1ccccc1 [ODTC 5, triphenyltin(IV) diethyl dithiocarbamate]",0.86,920 ± 50,790 ± 50,56.50 ± 1.64,26.47 ± 1.23,82.97 ± 2.84,9.84% ± 0.71,31.46% ± 2.86,58.70% ± 3.37,,,,,,,
"CCN(CC)C(=S)[S][Sn]([CH3])([CH3])[S]C(=S)N(CC)CC [ODTC 7, dimethyltin(IV) diethyl dithiocarbamate]",0.15,3400 ± 250,500 ± 20,13.13 ± 2.62,14.93 ± 1.35,28.06,23.41% ± 5.37,17.39% ± 4.52,57.19% ± 2.89,,,,,,,
COc1cccc2c1C(=O)c1c(O)c3c(c(O)c1C2=O)C[C@@](O)(C(=O)CO)C[C@@H]3O[C@H]1C[C@H](N)[C@H](O)[C@H](C)O1 [doxorubicin],,,,,,,,,,100,,,,,,
"CC[C@]1(O)C[C@H]2CN(CCc3c([nH]c4ccccc34)[C@@](C(=O)OC)(c3cc4c(cc3OC)N(C=O)[C@H]3[C@@](O)(C(=O)OC)[C@H](OC(C)=O)[C@]5(CC)C=CCN6CC[C@]43[C@@H]65)C2)C1 [Vincristine (positive control), Vincristine, reference compound]",0.96,,,36.07 ± 2.85,18.57 ± 1.31,54.64,66.76% ± 1.39,8.00% ± 0.00,25.24% ± 1.39,,40,240 ± 20,cytostatic effects,230 ± 30,,
"C=CCN(CC=C)C(=S)[S][Sn]([S]C(=S)N(CC=C)CC=C)([c]1ccccc1)[c]1ccccc1 [ODTC 2, diphenyltin(IV) diallyl dithiocarbamate]",0.50,1050 ± 20,520 ± 140,17.20 ± 2.69,30.07 ± 2.38,47.27,21.63% ± 3.17,19.03% ± 0.20,59.37% ± 3.07,,,,,,,
"CC(C)N(C(=S)[S][Sn]([CH3])([CH3])[S]C(=S)N(C(C)C)C(C)C)C(C)C [ODTC 6, dimethyltin(IV) diisopropyl dithiocarbamate]",,,5000 ± 20,,,,,,,,,,cytostatic effect,,does not produce IC50 value at the tested range of concentration,
"CC(C)N(C(=S)[S][Sn]([c]1ccccc1)([c]1ccccc1)[c]1ccccc1)C(C)C [ODTC 3, triphenyltin(IV) diisopropyl dithiocarbamate]",1.11,670 ± 60,750 ± 70,59.70 ± 1.96,27.80 ± 2.17,87.5,68.37% ± 4.78,4.34% ± 0.99,27.29% ± 5.12,,,,,,,
"C=CCN(CC=C)C(=S)[S][Sn]([c]1ccccc1)([c]1ccccc1)[c]1ccccc1 [ODTC 4, triphenyltin(IV) diallyl dithiocarbamate]",0.71,940 ± 80,670 ± 140,49.70 ± 2.84,38.63 ± 2.73,88.33,13.22% ± 2.30,22.67% ± 3.54,64.10% ± 4.46,,,,,,,
"CC(C)N(C(=S)[S][Sn]([S]C(=S)N(C(C)C)C(C)C)([c]1ccccc1)[c]1ccccc1)C(C)C [ODTC 1, diphenyltin(IV) diisopropyl dithiocarbamate]",0.96,1450 ± 20,1390 ± 460,12.23 ± 1.93,13.17 ± 1.13,25.4,,,,,,,,,,does not cause cell cycle arrest at any phase; also recorded: Not cell cycle specific

# Reference: PMC10143845, “Series of Organotin(IV) Compounds with Different Dithiocarbamate Ligands Induced Cytotoxicity, Apoptosis and Cell Cycle Arrest on Jurkat E6.1, T Acute Lymphoblastic Leukemia Cells” (Molecules, 2023)
